Measured values from patent US20240299595A1, “CANCER THERANOSTIC COMPOSITIONS COMPRISING BIGUANIDE COMPLEXES OF GROUP 7 TRANSITION METALS AND USES THEREOF” (BOARD OF REGENTS, THE UNIVERSITY OF TEXAS SYSTEM, priority 2021, published 2024).

System: normal cells (RAW264.7, NIH3T3, hTERT-HPNE)
Experiment: MTT cytotoxicity against normal cells
Format: cell-based
Settings: 72 hours
Experimental: Next, RAW264.7 (FIG. 14A), NIH3T3 (FIG. 14B), or hTERT-HPNE (FIG. 14C) cells were seeded in 96-well plates (5000 cells/well) overnight, and treated with Re-Phen or phenformin in concentrations ranging from 4.57×10−4 mM to 1.0 mM at 37° C. for 72 hours. Cell viability was measured using the MTT assay. The proportion of cells was normalized to that of untreated cells and expressed as mean±standard error of the mean (SEM) (n=5). The half-maximal inhibitory concentration (IC50) values were calculated by a sigmoidal dose-response (variable slope) curve-fitting using GraphPad Prism software.

## N=C(N)NC(=N)NCCc1ccccc1.[C-]#[O+].[C-]#[O+].[C-]#[O+].[Re+] [Re-Phen]
  cytotoxicity against normal cells: generally less cytotoxic than phenformin
